Values after ≈ are worked out from the molar mass of the structure shown. One block for each compound: values may come before it.
How the values were obtained:
[1] = Clearance in dog cryopreserved hepatocytes at 1 uM incubated from 1 to 80 mins by LC-MS/MS analysis; format: ADME, cell-based, Canis lupus familiaris, Hepatocyte; details: time 1-80 min
[2] = Half life in mouse intestinal S9 fraction in presence of NADPH; format: ADME, subcellular, Intestine
[3] = AUC (0-48 hrs) in mouse xenografted with human Huh-7 cells at 6 mg/kg, po qd administered for 8 days; format: ADME, organism-based; design: route oral, time 8 day, dose 6 mg/kg; details: in vivo
[4] = Half life in human intestinal S9 fraction in presence of NADPH; format: ADME, subcellular, Intestine
[5] = Apparent permeability of compound across basolateral to apical side in human Caco2 cells at 10 mM incubated for 120 mins by lucifer yellow based LC/MS/MS analysis; format: ADME, cell-based; details: Caco-2
[6] = Clearance in dog liver microsome at 10 mM measured after 15 mins in presence of NADPH by LC-MS analysis; format: ADME, Canis lupus familiaris; details: liver microsomes, read-out: CLH
[7] = AUC (0-48 hrs) in mouse xenografted with human Huh-7 cells at 12 mg/kg, po administered every other day for 8 days; format: ADME, organism-based; design: route oral, time 8 day, dose 12 mg/kg; details: in vivo
[8] = Half life in rat intestinal S9 fraction in presence of NADPH; format: ADME, subcellular, Intestine
[9] = Apparent permeability of compound across apical to basolateral side in human Caco2 cells at 10 mM incubated for 120 mins by lucifer yellow based LC/MS/MS analysis; format: ADME, cell-based; details: Caco-2
[10] = Thermodynamic solubility of compound in phosphate buffer at pH 6.8 measured after 15 mins by shake-flask method based LC-HRMS analysis; format: physicochemical; details: read-out: Therm_solubility
[11] = Half-life in female Balb/c mouse at 1 mg/kg, iv or 3 mg/kg, po; format: ADME, organism-based; details: in vivo
[12] = Oral bioavailability in Crl:CD (SD) rat at 3 mg/kg measured upto 24 hrs by LC-MS/MS analysis; format: ADME, organism-based; details: Crl:CD (SD), in vivo
[13] = Clearance in human liver microsome at 10 mM measured after 15 mins in presence of NADPH by LC-MS analysis; format: ADME; details: liver microsomes, read-out: CLH
[14] = Dissociation constant, pKa of compound by potentiometric titration method; format: physicochemical
[15] = Half life in rat liver S9 fraction at 1 uM in presence of NADPH incubated upto 120 mins by LC-MS/MS analysis; format: ADME, subcellular
[16] = Cmax in mouse xenografted with human Huh-7 cells at 3 mg/kg, po BID administered for 8 days; format: ADME, organism-based; design: route oral, time 8 day, dose 3 mg/kg; details: in vivo
[17] = AUC (0-48 hrs) in mouse xenografted with human Huh-7 cells at 3 mg/kg, po BID administered for 8 days; format: ADME, organism-based; design: route oral, dose 3 mg/kg, time 8 day; details: in vivo, 192 h
[18] = Clearance in Sprague-Dawley rat at 0.5 mg/kg, iv or 3 mg/kg, po measured upto 24 hrs by LC-MS/MS analysis; format: ADME, organism-based; details: in vivo
[19] = Half life in mouse liver S9 fraction at 1 uM in presence of NADPH incubated upto 120 mins by LC-MS/MS analysis; format: ADME, subcellular
[20] = Half-life in Beagle dog at 0.1 mg/kg, iv or 0.3 mg/kg, po by LC-MS/MS analysis; format: ADME, organism-based, Canis lupus familiaris; details: in vivo
[21] = Volume of distribution at steady state in Crl:CD (SD) rat at 1 mg/kg, iv or 3 mg/kg, po measured upto 24 hrs by LC-MS/MS analysis; format: ADME, organism-based; details: in vivo, read-out: Vdss
[22] = Half life in dog intestinal S9 fraction in presence of NADPH; format: ADME, subcellular, Canis lupus familiaris, Intestine; details: time 120 min
[23] = Clearance in human cryopreserved hepatocytes at 1 uM incubated from 1 to 80 mins by LC-MS/MS analysis; format: ADME, cell-based, Hepatocyte; details: time 1-80 min
[24] = Volume of distribution at steady state in female Balb/c mouse at 1 mg/kg, iv or 3 mg/kg, po; format: ADME, organism-based; details: in vivo, read-out: Vdss
[25] = Half life in human liver S9 fraction at 1 uM in presence of NADPH incubated upto 120 mins by LC-MS/MS analysis; format: ADME, subcellular
[26] = Half-life in Sprague-Dawley rat at 0.5 mg/kg, iv or 3 mg/kg, po measured upto 24 hrs by LC-MS/MS analysis; format: ADME, organism-based; details: in vivo
[27] = Clearance in mouse liver microsome at 10 mM measured after 15 mins in presence of NADPH by LC-MS analysis; format: ADME; details: liver microsomes, read-out: CLH
[28] = Clearance in mouse cryopreserved hepatocytes at 1 uM incubated from 1 to 80 mins by LC-MS/MS analysis; format: ADME, cell-based, Hepatocyte; details: time 1-80 min
[29] = Half life in dog liver S9 fraction at 1 uM in presence of NADPH incubated upto 120 mins by LC-MS/MS analysis; format: ADME, subcellular, Canis lupus familiaris
[30] = Oral bioavailability in female Balb/c mouse at 3 mg/kg; format: ADME, organism-based; details: in vivo
[31] = Oral bioavailability in Beagle dog at 0.3 mg/kg by LC-MS/MS analysis; format: ADME, organism-based, Canis lupus familiaris; details: Beagle, in vivo
[32] = Volume of distribution at steady state in Beagle dog at 0.1 mg/kg, iv or 0.3 mg/kg, po by LC-MS/MS analysis; format: ADME, organism-based, Canis lupus familiaris; details: in vivo, read-out: Vdss
[33] = Cmax in mouse xenografted with human Huh-7 cells at 12 mg/kg, po administered every other day for 8 days; format: ADME, organism-based; design: route oral, time 8 day, dose 12 mg/kg; details: in vivo
[34] = Cmax in mouse xenografted with human Huh-7 cells at 6 mg/kg, po qd administered for 8 days; format: ADME, organism-based; design: route oral, dose 6 mg/kg, time 8 day; details: in vivo
[35] = Clearance in rat cryopreserved hepatocytes at 1 uM incubated from 1 to 80 mins by LC-MS/MS analysis; format: ADME, cell-based, Hepatocyte; details: time 1-80 min
[36] = Clearance in rat liver microsome at 10 mM measured after 15 mins in presence of NADPH by LC-MS analysis; format: ADME; details: liver microsomes, read-out: CLH
[37] = Clearance in Beagle dog at 0.1 mg/kg, iv or 0.3 mg/kg, po by LC-MS/MS analysis; format: ADME, organism-based, Canis lupus familiaris; details: in vivo
[38] = Drug metabolism in rat liver microsomes assessed as N-(5-cyanopyridin-2-yl)-7-formyl-3,4-dihydro-1,8-naphthyridine-1(2H)-carboxamide metabolite formation in presence of NADPH by LC-MS analysis; format: ADME, Microsome
[39] = Drug metabolism in Crl:CD (SD) rat at 1 mg/kg, iv assessed as N-(5-cyanopyridin-2-yl)-7-formyl-3,4-dihydro-1,8-naphthyridine-1(2H)-carboxamide metabolite formation by LC-MS/MS analysis; format: ADME, organism-based; details: in vivo

CLH [1]: 6.5 µL/min/mg | half-life [2]: > 2 h | AUC at 192 h [3]: 5.2 µM·h | half-life [4]: > 2 h | Papp B→A at 2 h, 10000 µM [5]: 11 ×10⁻⁶ cm/s | microsomal CLint at […], 10000 µM [6]: 34 µL/min/mg | AUC at 192 h [7]: 7.2 µM·h | half-life [8]: > 2 h | Papp A→B at 2 h, 10000 µM [9]: 7.4 ×10⁻⁶ cm/s | solubility thermodynamic at […] [10]: 16 µM (≈ 8.12 µg/mL) | half-life [11]: 1.4 h | bioavailability [12]: 20% | microsomal CLint at […], 10000 µM [13]: 29 µL/min/mg | pKa [14]: 5.3 | half-life at 1 µM [15]: > 2 h | Cmax [16]: 180 nM | AUC [17]: 3.6 µM·h | clearance [18]: 19 mL/min/kg | half-life at 1 µM [19]: > 2 h | half-life [20]: 6.5 h | Vd [21]: 3.9 L/kg | half-life at 1 µM [22]: > 2 h | CLH [23]: 5.7 µL/min/mg | Vd [24]: 2.3 L/kg | half-life at 1 µM [25]: > 2 h | half-life [26]: 4.4 h | microsomal CLint at […], 10000 µM [27]: 18 µL/min/mg | CLH [28]: 2.5 µL/min/mg | half-life at 1 µM [29]: 0.867 h | F [30]: 20% | bioavailability [31]: 69% | Vd [32]: 3 L/kg | Cmax [33]: 1260 nM | Cmax [34]: 770 nM | CLH [35]: 11 µL/min/mg | microsomal CLint at […], 10000 µM [36]: 18 µL/min/mg | clearance [37]: 8 mL/min/kg
Structure (SMILES): COCCOc1cc(NC(=O)N2CCCc3cc(CN4CCN(C)CC4=O)c(C=O)nc32)ncc1C#N

Drug metabolism [38]: 1.3 nM | Drug metabolism [39]: 1.3 nM
Structure (SMILES): N#Cc1ccc(NC(=O)N2CCCc3ccc(CO)nc32)nc1

Source: ChEMBL document CHEMBL4715854, “Discovery of Roblitinib (FGF401) as a Reversible-Covalent Inhibitor of the Kinase Activity of Fibroblast Growth Factor Receptor 4” (J Med Chem, 2020)
